Measured values published in patent US20250042864A1, “SOLID STATE FORM OF TAFAMIDIS” (TEVA PHARMACEUTICALS INTERNATIONAL GMBH, priority 2021, published 2025).
Values after ≈ are worked out from the molar mass of the structure shown.

How the values were obtained:
Assay type in all cases: physicochemical
[1] = particle size / morphology of crystalline forms; conditions: morphology comparison of crystalline forms
[2] = water solubility of crystalline forms of tafamidis
[3] = stability to suspension (slurry) in PEG 400 at room temperature, analysed by XRPD; conditions: slurry in PEG 400, room temperature, XRPD (FIG. 6)
Protocol: 50 mg of samples of Form Va and Form 4 were placed into glass vials. 1 ml of PEG 400 was added at room temperature. The slurries were each mixed using a magnetic stirrer. The resulting samples were analysed by XRPD after 2 hours and after 7 days.

Row | SMILES | particle size [1] | water solubility [2] | solubility [2] | time for which the form is stable in PEG 400 slurry [3]
1 | O=C(O)c1ccc2nc(-c3cc(Cl)cc(Cl)c3)oc2c1 [Form 1, 2-(3,5-dichlorophenyl)-1,3-benzoxazole-6-carboxylic acid] | up to 100 μm |  |  | 
2 | O=C(O)c1ccc2nc(-c3cc(Cl)cc(Cl)c3)oc2c1 [Form 6, 2-(3,5-dichlorophenyl)-1,3-benzoxazole-6-carboxylic acid] | > 100 μm |  |  | 
3 | O=C(O)c1ccc2nc(-c3cc(Cl)cc(Cl)c3)oc2c1 [Form V, 2-(3,5-dichlorophenyl)-1,3-benzoxazole-6-carboxylic acid] |  | 1.47 µg/mL (≈ 4.77 µM) |  | 
4 | O=C(O)c1ccc2nc(-c3cc(Cl)cc(Cl)c3)oc2c1 [Form Va, 2-(3,5-dichlorophenyl)-1,3-benzoxazole-6-carboxylic acid] | 5-10 μm |  | 2.21 µg/mL (≈ 7.17 µM) | at least 7 days
